Results: patent publication US11548868B2, “Heterocyclic compounds, compositions comprising heterocyclic compound, and methods of use thereof” (JS INNOPHARM (SHANGHAI) LTD, priority 2017, dated 2023)

Tests used:
[1] = biological target: T1, TDO2 in A172 cancer cells (Homo sapiens, UniProt P48775); experiment: TDO2 Cellular Assay (kynurenine production in A172 cancer cells); format: cell-based; conditions: L-Trp 1 mM, 24 hours incubation, kynurenine at 490 nm
T1 construct: endogenous in cells; host or cells: A172 cancer cells
Description: A172 cancer cells (3×10^4 per well) in 85 μL DMEM medium containing 10% FBS were seeded in a 96-well plate and incubated at 95% humidity and 5% CO2 at 37° C. for overnight. On the next day, L-Trp solution (10 μL, 1 mM final concentration) and serial dilutions of the test compounds and DMEM medium resulting in a total final volume of 100 μL each well. The test compounds were dissolved in DMSO and successively diluted with pH7.5 butter (with final DMSO concentration of 0.25%) resulting in final concentrations of the test compounds ranging from 0 to 25 μM (0, 2.5, 7.5, 25, 75, 250, 750, 2500, 7500, & 25000 nM). After 24 hours of incubation, 70 uL of the supernatant per well was transferred to a new 96 well plate. 8 μL of trichloroacetic acid (6.1 N) was mixed into each well and incubated at 50° C. for 30 min to hydrolyze N-formylkynurenine to kynurenine. The reaction mixture was then centrifuged for 10 min at 2500 RPM to remove sediments. 50 μL of the supernatant per well was transferred to another 96 well plate and mixed with 50 μL of 2% (w/v) p-dimethylaminobenzaldehyde in acetic acid. The yellow color derived from kynurenine was measured at 490 nm using a microplate reader. Percent inhibition of the test compounds was determined by measuring the decrease in kynurenine as compared to the control of DMSO vehicle, which was calculated by formula of (WC−WT)/WC, where WC is the mean absorbance of the control well minus blank well; WT is the mean absorbance of the test well minus the blank well. Data was analyzed by GraphPad Prism 5 and the IC50 values were obtained by non-linear regression.
(§1) The IC50 values of for Compounds disclosed are listed in Table 2, A′: ≤0.5 μM; B′: >0.5 μM and ≤1 μM; C′: >1.0 μM and ≤5 uM; and D′: >5 μM.

[2] = biological target: T2, IDO1 in Hela cancer cells (Homo sapiens, UniProt P14902); experiment: IDO1 Cellular Assay (kynurenine production in IFN-γ stimulated Hela cancer cells); format: cell-based; conditions: human IFN-γ 50 ng/mL, 48 hours incubation, kynurenine at 490 nm
T2 construct: endogenous in cells; host or cells: Hela cancer cells stimulated with human IFN-γ
Description: Hela cancer cells (5×10^3 per well) with 85 μL DMEM medium containing 10% FBS were seeded in a 96-well plate and incubated at 95% humidity and 5% CO2 at 37° C. for 24 hours. human IFN-γ (10 μL, 50 ng/mL final concentration) and 5 μL serial dilutions of the test compounds were added into each well. The test compounds were dissolved in DMSO, and successively diluted with pH7.5 buffer (with final DMSO concentration of 0.25%) resulting in final concentrations of the test compounds ranging from 0 to 25 μM (0, 2.5, 7.5, 25, 75, 250, 750, 2500, 7500, & 25000 nM). After 48 hours of incubation, 70 uL of the supernatant per well was transferred to a new 96 well plate. Trichloroacetic acid (6.1 N, 8 μL) was mixed into each well and incubated at 50° C. for 30 min to hydrolyze N-formylkynurenine produced by IDO to kynurenine. The reaction mixture was then centrifuged for 10 min at 2500 RPM to remove sediments. 50 μL of the supernatant per well was transferred to another 96 well plate and mixed with 50 uL of 2% (w/v) p-dimethylaminobenzaldehyde in acetic acid. The yellow color derived from kynurenine was measured at 490 nm using a microplate reader. Percent inhibition of the test compounds was determined by measuring the decrease in kynurenine as compared to the control of DMSO vehicle, which was calculated by formula of (WC-WT)/WC, where WC is the mean absorbance of the control well minus blank well; WT is the mean absorbance of the test well minus the blank well. Data was analyzed by GraphPad Prism 5 and the IC50 values were obtained by non-linear regression.
as §1

T1 sequence (P48775 whole entry): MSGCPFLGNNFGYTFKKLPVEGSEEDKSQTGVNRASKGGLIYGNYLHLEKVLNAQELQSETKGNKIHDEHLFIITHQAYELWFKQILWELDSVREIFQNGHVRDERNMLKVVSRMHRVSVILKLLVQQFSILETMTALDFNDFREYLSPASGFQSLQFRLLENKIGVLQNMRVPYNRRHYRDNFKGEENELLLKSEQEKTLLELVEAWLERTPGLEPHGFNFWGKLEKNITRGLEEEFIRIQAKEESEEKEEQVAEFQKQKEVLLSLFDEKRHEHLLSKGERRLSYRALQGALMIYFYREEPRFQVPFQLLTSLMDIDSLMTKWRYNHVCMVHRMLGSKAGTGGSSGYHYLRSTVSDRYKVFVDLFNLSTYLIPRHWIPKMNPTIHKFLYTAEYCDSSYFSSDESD
T2 sequence (P14902 whole entry): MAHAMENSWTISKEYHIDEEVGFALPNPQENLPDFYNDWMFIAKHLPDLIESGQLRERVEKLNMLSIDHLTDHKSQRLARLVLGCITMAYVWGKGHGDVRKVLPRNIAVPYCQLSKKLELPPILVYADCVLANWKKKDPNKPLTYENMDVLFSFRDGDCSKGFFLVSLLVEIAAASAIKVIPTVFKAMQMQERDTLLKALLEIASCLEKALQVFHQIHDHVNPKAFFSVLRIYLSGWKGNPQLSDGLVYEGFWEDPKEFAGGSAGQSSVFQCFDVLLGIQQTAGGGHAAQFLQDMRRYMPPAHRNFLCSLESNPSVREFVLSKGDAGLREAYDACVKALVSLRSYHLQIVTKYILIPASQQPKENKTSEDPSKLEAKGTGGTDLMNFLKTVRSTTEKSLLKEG

Row | SMILES | IC50 [1] [nM] | IC50 [2] [µM]
1 | CS(=O)(=O)N1C[C@@H]2C[C@@](O)(c3c(Cl)ccc4cncn34)C[C@@H]2C1 [Example 53, (3aR,5r,6aS)-5-(6-chloroimidazo[1,5-a]pyridin-5-yl)-2-(methylsulfonyl)octahydrocyclopenta[c]pyrrol-5-ol] | 1000 to 5000 | > 5
2 | COc1ccccc1-c1c[nH]cc1C(=O)N[C@H]1[C@@H]2C[C@@](O)(c3cc(Cl)cc4[nH]ncc34)C[C@@H]21 [Example 127, N-((1R,3r,5S,6r)-3-(6-chloro-1H-indazol-4-yl)-3-hydroxybicyclo[3.1.0]hexan-6-yl)-4-(2-methoxyphenyl)-1H-pyrrole-3-carboxamide] | ≤ 500 | > 5
3 | CC1(C)[C@H]2CN(c3c(C4CC4)ccc4cncn34)C[C@H]2CN1S(C)(=O)=O (racemic) [Example 55, Racemic-6-cyclopropyl-5-((3aR,6aS)-4,4-dimethyl-5-(methylsulfonyl)hexahydropyrrolo[3,4-c]pyrrol-2(1H)-yl)imidazo[1,5-a]pyridine] | > 5000 | > 5
4 | CC(=O)N1C[C@@H]2CN(c3cc(C(F)(F)F)cn4cncc34)C[C@@H]2C1(C)C (racemic) [Example 45, Racemic-1-((3aS,6aR)-1,1-dimethyl-5-(6-(trifluoromethyl)imidazo[1,5-a]pyridin-8-yl)hexahydropyrrolo[3,4-c]pyrrol-2(1H)-yl)ethanone] | 1000 to 5000 | > 5
5 | CC(=O)N1C[C@H]2C[C@@H](c3cc(C(F)(F)F)cn4cncc34)C[C@H]2C1 [Example 4, 1-((3aR,5r,6aS)-5-(6-(trifluoromethyl)imidazo[1,5-a]pyridin-8-yl)hexahydrocyclopenta[c]pyrrol-2(1H)-yl)ethanone] | > 5000 | –
6 | N#Cc1ccc(S(=O)(=O)N2C[C@H]3CN(c4cc(Cl)cc5[nH]ncc45)C[C@H]3C2)cc1 [Example 33, 4-(((3aR,6aS)-5-(6-chloro-1H-indazol-4-yl)hexahydropyrrolo[3,4-c]pyrrol-2(1H)-yl)sulfonyl)benzonitrile] | > 5000 | –
7 | CC1(C)C2CN(c3cc(Cl)cc4[nH]ncc34)CC2CN1S(C)(=O)=O (racemic) [Example 1, 6-chloro-4-(4,4-dimethyl-5-(methylsulfonyl)hexahydropyrrolo[3,4-c]pyrrol-2(1H)-yl)-1H-indazole] | ≤ 500 | –
8 | CC(C)OC(=O)N1C[C@@H]2C[C@@](O)(c3cc(Cl)cc4[nH]ncc34)C[C@@H]2C1 [Example 61, (3aR,5r,6aS)-isopropyl 5-(6-chloro-1H-indazol-4-yl)-5-hydroxyhexahydrocyclopenta[c]pyrrole-2(1H)-carboxylate] | ≤ 500 | –
9 | CC1(C)C2CN(c3cc(Cl)cc4[nH]ncc34)CC2CN1C(=O)C1CC1 (centres unmarked) [Example 29, (5-(6-chloro-1H-indazol-4-yl)-1,1-dimethylhexahydropyrrolo[3,4-c]pyrrol-2(1H)-yl)(cyclopropyl)methanone] | 500 to 1000 | –
10 | CS(=O)(=O)N1C[C@@H]2CC(c3cc(Cl)cc4[nH]ncc34)=C[C@@H]2C1 (racemic) [Example 5, Racemic-6-chloro-4-((3aR,6aS)-2-(methylsulfonyl)-1,2,3,3a,4,6a-hexahydrocyclopenta[c]pyrrol-5-yl)-1H-indazole] | ≤ 500 | –
11 | O=C(C1CCOCC1)N1C[C@@H]2C[C@@](O)(c3cc(Cl)cc4[nH]ncc34)C[C@@H]2C1 [Example 88, ((3aR,5r,6aS)-5-(6-chloro-1H-indazol-4-yl)-5-hydroxyhexahydrocyclopenta[c]pyrrol-2(1H)-yl)(tetrahydro-2H-pyran-4-yl)methanone] | ≤ 500 | –

More lines, now with the values ahead:

Row | IC50 [1] [nM] | IC50 [2] [µM] | SMILES
12 | ≤ 500 | > 5 | O=S(=O)(N[C@H]1[C@@H]2C[C@@](O)(c3cc(Cl)cc4[nH]ncc34)C[C@@H]21)c1ccccc1 [Example 95, N-((1R,3r,5S,6r)-3-(6-chloro-1H-indazol-4-yl)-3-hydroxybicyclo[3.1.0]hexan-6-yl)benzenesulfonamide]
13 | 1000 to 5000 | 1 to 5 | O=S(=O)(N[C@H]1[C@@H]2C[C@@](O)(c3cc(Cl)cc4cn[nH]c34)C[C@@H]21)C1CC1 [Example 110, N-((1R,3r,5S,6r)-3-(5-chloro-1H-indazol-7-yl)-3-hydroxybicyclo[3.1.0]hexan-6-yl)cyclopropanesulfonamide]
14 | ≤ 500 | – | O=S(=O)(N[C@H]1[C@@H]2C[C@@](O)(c3cc(Cl)cc4[nH]ncc34)C[C@@H]21)C1CCCC1 [Example 74, N-((1R,3r,5S,6r)-3-(6-chloro-1H-indazol-4-yl)-3-hydroxybicyclo[3.1.0]hexan-6-yl)cyclopentanesulfonamide]
15 | ≤ 500 | – | CCS(=O)(=O)N[C@H]1[C@@H]2C[C@@](O)(c3cc(Cl)cc4[nH]ncc34)C[C@@H]21 [Example 71, N-((1R,3r,5S,6r)-3-(6-chloro-1H-indazol-4-yl)-3-hydroxybicyclo[3.1.0]hexan-6-yl)ethanesulfonamide]
16 | ≤ 500 | – | CCC(=O)N[C@H]1[C@@H]2C[C@@](O)(c3cc(Cl)cc4[nH]ncc34)C[C@@H]21 [Example 82, N-((1R,3r,5S,6r)-3-(6-chloro-1H-indazol-4-yl)-3-hydroxybicyclo[3.1.0]hexan-6-yl)propionamide]
17 | ≤ 500 | – | O=C(N[C@H]1[C@@H]2C[C@@](O)(c3cc(Cl)cc4[nH]ncc34)C[C@@H]21)C1CCCO1 (stereo partly drawn) [Example 75, N-((1R,3r,5S,6r)-3-(6-chloro-1H-indazol-4-yl)-3-hydroxybicyclo[3.1.0]hexan-6-yl)tetrahydrofuran-2-carboxamide]
18 | ≤ 500 | – | CC(C)S(=O)(=O)N[C@H]1[C@@H]2C[C@@](O)(c3cc(Cl)cc4[nH]ncc34)C[C@@H]21 [Example 77, N-((1R,3r,5S,6r)-3-(6-chloro-1H-indazol-4-yl)-3-hydroxybicyclo[3.1.0]hexan-6-yl)propane-2-sulfonamide]
19 | ≤ 500 | – | O=C([C@H]1CC[C@H](O)CC1)N1C[C@@H]2C[C@@](O)(c3cc(Cl)cc4[nH]ncc34)C[C@@H]2C1 [Example 66, ((3aR,5R,6aS)-5-(6-chloro-1H-indazol-4-yl)-5-hydroxyhexahydrocyclopenta[c]pyrrol-2(1H)-yl)((1r,4R)-4-hydroxycyclohexyl)methanone]
20 | ≤ 500 | – | O=C(CC1CC1)N1C[C@@H]2C[C@@](O)(c3cc(Cl)cc4[nH]ncc34)C[C@@H]2C1 [Example 69, 1-((3aR,5r,6aS)-5-(6-chloro-1H-indazol-4-yl)-5-hydroxyhexahydrocyclopenta[c]pyrrol-2(1H)-yl)-2-cyclopropylethanone]
21 | ≤ 500 | – | O=S(=O)(N[C@H]1[C@@H]2C[C@@](O)(c3cc(Cl)cc4[nH]ncc34)C[C@@H]21)C1CCCCC1 [Example 78, N-((1R,3r,5S,6r)-3-(6-chloro-1H-indazol-4-yl)-3-hydroxybicyclo[3.1.0]hexan-6-yl)cyclohexanesulfonamide]
22 | ≤ 500 | – | O=C(N[C@H]1[C@@H]2C[C@@](O)(c3cc(Cl)cc4[nH]ncc34)C[C@@H]21)C1CCC1 [Example 84, N-((1R,3r,5S,6r)-3-(6-chloro-1H-indazol-4-yl)-3-hydroxybicyclo[3.1.0]hexan-6-yl)cyclobutanecarboxamide]
23 | ≤ 500 | – | CC(C)(C)C(=O)N[C@H]1[C@@H]2C[C@@](O)(c3cc(Cl)cc4[nH]ncc34)C[C@@H]21 [Example 90, N-((1R,3r,5S,6r)-3-(6-chloro-1H-indazol-4-yl)-3-hydroxybicyclo[3.1.0]hexan-6-yl)pivalamide]
